Data on 63 compounds can be found in patent publication US20230321086A1, “METHODS AND MATERIALS FOR INHIBITING NICOTINAMIDE PHOSPHORIBOSYLTRANSFERASE ACTIVITY” (Universiy of Pittsburgh - Of the Commonwealth System of …, priority 2020, published 2023).

In general, IC50 refers to the concentration needed to halve the response being measured.

NAMPT, sequence (P43490 whole entry, species assumed): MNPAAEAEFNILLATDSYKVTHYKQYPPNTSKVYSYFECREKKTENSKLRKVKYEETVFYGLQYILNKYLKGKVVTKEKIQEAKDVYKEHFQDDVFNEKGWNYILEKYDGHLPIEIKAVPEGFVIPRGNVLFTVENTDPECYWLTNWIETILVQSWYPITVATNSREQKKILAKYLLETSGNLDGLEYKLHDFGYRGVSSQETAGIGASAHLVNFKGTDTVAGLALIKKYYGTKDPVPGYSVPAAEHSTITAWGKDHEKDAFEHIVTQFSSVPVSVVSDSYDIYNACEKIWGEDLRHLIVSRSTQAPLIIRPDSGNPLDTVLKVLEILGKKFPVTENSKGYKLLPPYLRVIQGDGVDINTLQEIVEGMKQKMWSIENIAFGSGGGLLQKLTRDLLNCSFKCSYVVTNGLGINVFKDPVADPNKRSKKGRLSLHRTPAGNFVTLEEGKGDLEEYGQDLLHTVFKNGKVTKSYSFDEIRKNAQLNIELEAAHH

The target of the assay is NAMPT (Homo sapiens, UniProt P43490). The assay is described as follows: Assay for in vitro NAMPT activity via NMN assessment. Conditions: read-out: A: NAMPT enzyme inhibitory activity, IC50. Format: biochemical. The method, then:
The following were added to a well: 20 μL 2× test compound in Basic Buffer (0.02% BSA, 2 mM DTT, 12 mM MgCl2, 50 mM Tris pH7.5); 10 μL 8 μg/mL NAMPT, and 200 μM PRPP working solution (or PRPP working solution to background wells). 10 μL 100 μM NAM working solution was added to start the reaction. The plate was sealed and incubated for 45 minutes at 37° C. After incubation, 10 μL 20% acetophenone in DMSO, 10 μL 2N KOH, and 20 μL 88% formic acid were added. The plate was sealed and incubated for 30 minutes at 37° C. After incubation, fluorescence at Ex/Em 387/441 was read.
In each table header, A: NAMPT enzyme inhibitory activity, IC50 (μM); B: Cellular NAD inhibitory activity, IC50 (μM); and C: change in NAD levels in response to test compound, shown as % of NAD activity in the absence of test compound. […] A percentage of 100 percent would indicate no increase or decrease in NAD levels as compared to that measured for untreated control cells, while a percentage of 50 percent would indicate a decrease in NAD levels of 50 percent as compared to that measured for untreated control cells.
As for `CC(=O)N1CCCC(CNC(=O)NCc2ccc3nc(-c4ccc(F)cc4)c(-c4ccc(F)cc4)nc3c2)C1` (stereo not drawn) [BC20301], the IC50 lay in the range of 1 to 25 µM.
The result for `O=C(NC[C@H]1CCCNC1)c1ccc2nc(-c3ccc(F)cc3)c(-c3ccc(F)cc3)nc2c1` [BC20279] reads no less than 25 µM.
To `C#CCNC(=O)c1ccc2nc(-c3ccc(F)cc3)c(-c3cccc(NS(C)(=O)=O)c3)nc2c1` [BC20212] belongs no less than 25 µM.
With `CN(C)CC(=O)NCc1cccc(-c2nc3cc(C(=O)N4CCN(C)CC4)ccc3nc2-c2ccc(F)cc2)c1` [BC20263], the IC50 is no less than 25 µM.
The result for `CC(=O)NCc1cccc(-c2nc3cc(C(=O)N4CCN(C)CC4)ccc3nc2-c2ccc(F)cc2)c1` [BC20230] reads no less than 25 µM.
For `C#CCNC(=O)c1ccc2nc(-c3cccc(CN(C)C)c3)c(-c3ccc(F)cc3)nc2c1` [BC20234], the IC50 is no less than 25 µM.
To `CC(C)CC(=O)N1CCC[C@H](CNC(=O)c2ccc3nc(-c4ccc(F)cc4)c(-c4ccc(F)cc4)nc3c2)C1` [BC20292] belongs no less than 25 µM; to `C#CCNC(=O)c1ccc2nc(-c3cccc(NC(=O)COC)c3)c(-c3cccc(NC(=O)COC)c3)nc2c1` [BC20228], no less than 25 µM; to `O=C(NCc1ccc2nc(-c3ccc(F)cc3)c(-c3ccc(F)cc3)nc2c1)c1cccnc1` [BC20267], 1 to 25 µM.
`COCC(=O)Nc1cccc(-c2nc3ccc(C(=O)N4CCN(C)CC4)cc3nc2-c2cccc(NC(=O)COC)c2)c1` [BC20221]: the IC50 is no less than 25 µM.
Consider `CN1CCN(C(=O)c2ccc3nc(-c4ccc(F)cc4)c(-c4cccc(CNS(C)(=O)=O)c4)nc3c2)CC1` [BC20231], for which the 50% inhibitory concentration (IC50) is no less than 25 µM.
The result for `O=C1NCCCN1c1ccc2nc(-c3ccc(F)cc3)c(-c3ccc(F)cc3)nc2c1` [BC20218] reads no less than 25 µM; that for `COCC(=O)Nc1cccc(-c2nc3cc(C(=O)N4CCN(C)CC4)ccc3nc2-c2ccc(F)cc2)c1` [BC20209], no less than 25 µM.
The result for `CN(C)CC(=O)Nc1cccc(-c2nc3cc(C(=O)N4CCN(C)CC4)ccc3nc2-c2ccc(F)cc2)c1` [BC20229] reads no less than 25 µM; that for `CN1CCN(C(=O)c2ccc3nc(-c4cccc(N(C)C)c4)c(-c4ccc(F)cc4)nc3c2)CC1` [BC20246], no less than 25 µM.
To `CN1CCN(C(=O)c2ccc3nc(-c4ccc(F)cc4)c(-c4cccc(NS(C)(=O)=O)c4)nc3c2)CC1` [BC20210] belongs no less than 25 µM.
For `C#CCNC(=O)c1ccc2nc(-c3ccc(F)cc3)c(-c3cccc(CN4CCCC4)c3)nc2c1` [BC20223], the IC50 was no less than 25 µM.
To `O=C(NCc1ccccc1)Nc1cnc2nc(-c3ccc(F)cc3)c(-c3ccc(F)cc3)nc2c1` [BC20207] belongs no less than 25 µM.
Take `O=C(Cc1cccnc1)NCc1ccc2nc(-c3ccc(F)cc3)c(-c3ccc(F)cc3)nc2c1` [BC20278]: the IC50 was in the range of 1 to 25 µM.
Take `O=C(NCc1ccc2nc(-c3ccc(F)cc3)c(-c3ccc(F)cc3)nc2c1)NC[C@H]1CCCNC1` [BC20285]: the 50% inhibitory concentration (IC50) was 1 to 25 µM.
The result for `C#CCNC(=O)c1ccc2nc(-c3cccc(CNC(C)=O)c3)c(-c3cccc(CNC(C)=O)c3)nc2c1` [BC20274] reads no less than 25 µM; that for `CS(=O)(=O)N1CCCC(CNC(=O)Nc2ccc3nc(-c4ccc(F)cc4)c(-c4ccc(F)cc4)nc3c2)C1` (stereo not drawn) [BC20300], 1 to 25 µM.
To `C#CCNC(=O)Nc1cnc2nc(-c3ccc(F)cc3)c(-c3ccc(F)cc3)nc2c1` [BC20297] belongs no less than 25 µM.
In the case of `CN(C)Cc1cccc(-c2nc3cc(C(=O)N4CCN(C)CC4)ccc3nc2-c2ccc(F)cc2)c1` [BC20215], the IC50 was no less than 25 µM.
With `CN1CCN(C(=O)c2ccc3nc(-c4cccc(NS(C)(=O)=O)c4)c(-c4ccc(F)cc4)nc3c2)CC1` [BC20290], the IC50 is no less than 25 µM.
With `COCC(=O)N1CCC[C@H](CNC(=O)c2ccc3nc(-c4ccc(F)cc4)c(-c4ccc(F)cc4)nc3c2)C1` [BC20281], the IC50 is no less than 25 µM.
The result for `CN1CCC[C@H](CNC(=O)c2ccc3nc(-c4ccc(F)cc4)c(-c4ccc(F)cc4)nc3c2)C1` [BC20280] reads 1 to 25 µM; that for `O=C(NCCc1ccncc1)c1cnc2nc(-c3ccc(F)cc3)c(-c3ccc(F)cc3)nc2c1` [BC20206], less than 1 µM; that for `C#CCNC(=O)c1ccc2nc(-c3cccc(NS(C)(=O)=O)c3)c(-c3ccc(F)cc3)nc2c1` [BC20247], 1 to 25 µM.
The result for `C#CCNC(=O)c1ccc2nc(-c3ccc(F)cc3)c(-c3cccc(NC(=O)COC)c3)nc2c1` [BC20211] reads no less than 25 µM; that for `COCC(=O)NCc1cccc(-c2nc3ccc(C(=O)N4CCN(C)CC4)cc3nc2-c2ccc(F)cc2)c1` [BC20296], no less than 25 µM.
Regarding `CS(=O)(=O)N1CCC[C@H](CNC(=O)NCc2ccc3nc(-c4ccc(F)cc4)c(-c4ccc(F)cc4)nc3c2)C1` [BC20284], the IC50 lay in the range of 1 to 25 µM.
The result for `CS(=O)(=O)N1CCCC(NC(=O)Nc2ccc3nc(-c4ccc(F)cc4)c(-c4ccc(F)cc4)nc3c2)C1` (stereo not drawn) [BC20238] reads 1 to 25 µM; that for `O=C(NCCc1cccnc1)Nc1ccc2nc(-c3ccc(F)cc3)c(-c3ccc(F)cc3)nc2n1` [BC20310], less than 1 µM; that for `O=C1N(Cc2cccnc2)CCN1c1ccc2nc(-c3ccc(F)cc3)c(-c3ccc(F)cc3)nc2c1` [BC20277], 1 to 25 µM.
The result for `CN(C)Cc1cccc(-c2nc3ccc(C(=O)N4CCN(C)CC4)cc3nc2-c2ccc(F)cc2)c1` [BC20307] reads no less than 25 µM; that for `CN1CCN(C(=O)c2ccc3nc(-c4cccc(CN5CCCC5)c4)c(-c4cccc(CN5CCCC5)c4)nc3c2)CC1` [BC20242], no less than 25 µM.
To `CN1CCC[C@H](CNC(=O)NCc2ccc3nc(-c4ccc(F)cc4)c(-c4ccc(F)cc4)nc3c2)C1` [BC20294] belongs no less than 25 µM; to `O=C(NCc1ccncc1)c1cnc2nc(-c3ccc(F)cc3)c(-c3ccc(F)cc3)nc2c1` [BC20204], no less than 25 µM.
`CCCC(=O)N1CCC[C@H](CNC(=O)c2ccc3nc(-c4ccc(F)cc4)c(-c4ccc(F)cc4)nc3c2)C1` [BC20283]: the 50% inhibitory concentration (IC50) is no less than 25 µM.
The result for `O=C(NCc1cccnc1)NCc1ccc2nc(-c3ccc(F)cc3)c(-c3ccc(F)cc3)nc2c1` [BC20236] reads 1 to 25 µM; that for `C#CCNC(=O)c1ccc2nc(-c3ccc(F)cc3)c(-c3cccc(CNC(=O)COC)c3)nc2c1` [BC20276], no less than 25 µM; that for `CN1CCN(Cc2cccc(-c3nc4ccc(C(=O)N5CCN(C)CC5)cc4nc3-c3ccc(F)cc3)c2)CC1` [BC20249], no less than 25 µM.
The result for `C#CCCC(=O)N1CCC[C@H](CNC(=O)c2ccc3nc(-c4ccc(F)cc4)c(-c4ccc(F)cc4)nc3c2)C1` [BC20295] reads no less than 25 µM; that for `C#CCNC(=O)c1ccc2nc(-c3ccc(F)cc3)c(-c3cccc(N(C)C)c3)nc2c1` [BC20244], no less than 25 µM.
Consider `O=C1N(Cc2cccnc2)CCN1c1cnc2nc(-c3ccc(F)cc3)c(-c3ccc(F)cc3)nc2c1` [BC20291], for which the IC50 was no less than 25 µM.
The result for `C#CCNC(=O)c1ccc2nc(-c3cccc(CNS(C)(=O)=O)c3)c(-c3cccc(CNS(C)(=O)=O)c3)nc2c1` [BC20261] reads no less than 25 µM.
To `CC(=O)N1CCCC(NC(=O)Nc2ccc3nc(-c4ccc(F)cc4)c(-c4ccc(F)cc4)nc3c2)C1` (stereo not drawn) [BC20217] belongs 1 to 25 µM; to `CN(C)CCNC(=O)Nc1cnc2nc(-c3ccc(F)cc3)c(-c3ccc(F)cc3)nc2c1` [BC20312], no less than 25 µM; to `C#CCNC(=O)c1ccc2nc(-c3ccc(F)cc3)c(-c3cccc(NC(C)=O)c3)nc2c1` [BC20222], no less than 25 µM.
The result for `CC(=O)N1CCCC(NC(=O)NCc2ccc3nc(-c4ccc(F)cc4)c(-c4ccc(F)cc4)nc3c2)C1` (stereo not drawn) [BC20252] reads no less than 25 µM; that for `CCCS(=O)(=O)N1CCCC(NC(=O)Nc2cnc3nc(-c4ccc(F)cc4)c(-c4ccc(F)cc4)nc3c2)C1` (stereo not drawn) [BC20293], no less than 25 µM.
Turning to `CN1CCCC(NC(=O)Nc2ccc3nc(-c4ccc(F)cc4)c(-c4ccc(F)cc4)nc3c2)C1` (stereo not drawn) [BC20237], the half-inhibitory concentration (IC50) is no less than 25 µM.
The result for `C#CCNC(=O)c1ccc2nc(-c3ccc(F)cc3)c(-c3cccc(NC(=O)CN(C)C)c3)nc2c1` [BC20214] reads no less than 25 µM.
The result for `CN1CCN(C(=O)c2ccc3nc(-c4cccc(NS(C)(=O)=O)c4)c(-c4cccc(NS(C)(=O)=O)c4)nc3c2)CC1` [BC20258] reads no less than 25 µM; that for `CN1CCN(C(=O)c2ccc3nc(-c4ccc(F)cc4)c(-c4cccc(CO)c4)nc3c2)CC1` [BC20240], no less than 25 µM; that for `CS(=O)(=O)N1CCCC(NC(=O)Nc2cnc3nc(-c4ccc(F)cc4)c(-c4ccc(F)cc4)nc3c2)C1` (stereo not drawn) [BC20256], 1 to 25 µM.
The result for `O=C(Nc1ccc2nc(-c3ccc(F)cc3)c(-c3ccc(F)cc3)nc2c1)NC1CCCNC1` (stereo not drawn) [BC20225] reads no less than 25 µM; that for `CC(=O)N1CCC[C@H](CNC(=O)c2ccc3nc(-c4ccc(F)cc4)c(-c4ccc(F)cc4)nc3c2)C1` [BC20271], no less than 25 µM.
With `CC(=O)Nc1cccc(-c2nc3ccc(C(=O)N4CCN(C)CC4)cc3nc2-c2cccc(NC(C)=O)c2)c1` [BC20241], the IC50 is no less than 25 µM.
The result for `CC(=O)Nc1cccc(-c2nc3cc(C(=O)N4CCN(C)CC4)ccc3nc2-c2ccc(F)cc2)c1` [BC20208] reads no less than 25 µM.
The result for `C#CCNC(=O)c1ccc2nc(-c3cccc(CNC(=O)COC)c3)c(-c3cccc(CNC(=O)COC)c3)nc2c1` [BC20275] reads no less than 25 µM; that for `CN1CCCC(NC(=O)Nc2cnc3nc(-c4ccc(F)cc4)c(-c4ccc(F)cc4)nc3c2)C1` (stereo not drawn) [BC20269], no less than 25 µM.
